Measurements taken from patent publication US20250281554A1, “COMPOSITION FOR IMPROVING DRUG SENSITIVITY OF ANTIBACTERIAL DRUG TO METHICILLIN-RESISTANT STAPHYLOCOCCUS AUREUS (MRSA), COMPOSITION FOR TREATING OR PREVENTING MRSA INFECTION, AND COMPOSITION FOR REDUCING VIRULENCE OF MRSA” (priority 2021, published 2025).
Values after ≈ are worked out from the molar mass of the structure shown.

How the values were obtained:
Format in all cases: cell-based, methicillin-resistant Staphylococcus aureus
[1] = test system: MRSA2007-13 SAm1-206 (mgrA mutation and femA mutation); test: drug sensitivity test (MIC method), SAm1-206; settings: dry plate, cultured 20 hours, unit assumed
Description: (§1) Next, the drug sensitivities of a wild-type strain (MRSA2007-13 strain) and mutated strains having a mutation in both mgrA and femA (SAm1-201, SAm1-206, SAm1-210) to antibacterial drugs were measured in a drug sensitivity test (MIC method). The test method will be explained. A bacterial solution (a wild-type strain or a mutant) precultured overnight was diluted with sterile physiological saline to reach OD600≈0.26, and 25 μL of the bacterial solution was added to 12 mL of Mueller-Hinton liquid medium (Eiken Chemical Co., Ltd.). To each well of a dry plate (Eiken Chemical Co., Ltd.), […] of the bacterial solution was added, and cultured for 20 hours. After culturing, the MIC was determined based on determination criteria for the dry plate.

[2] = test system: wild-type strain (MRSA2007-13 strain); test: drug sensitivity test (MIC method), wild-type strain; settings: MRSA2007-13 WT; for MIC, WT: dry plate, cultured 20 hours, in µg/mL (unit assumed); on drug sensitivity rating (MIC method), WT: key: resistance (R); sensitivity(S)
Description: as §1

[3] = test system: MRSA2007-13 SAm1-201 (mgrA mutation and femA mutation); test: drug sensitivity test (MIC method), SAm1-201; settings: for MIC, SAm1-201: dry plate, cultured 20 hours
Description: as §1

[4] = test system: MRSA2007-13 SAm1-210 (mgrA mutation and femA mutation); test: drug sensitivity test (MIC method), SAm1-210; settings: dry plate, cultured 20 hours, unit assumed
Description: as §1

[5] = test system: mutant (SAm1-201) of MRSA2007-13; test: drug sensitivity test (disk method), mutant SAm1-201; settings: MRSA2007-13 SAm1-201, 37° C., 24 hours; for drug sensitivity rating (disk method), SAm1-201: Mueller-Hinton II agar; for diameter of inhibitory zone, SAm1-201: number in brackets; on drug sensitivity rating (disk method), SAm1-201: key: resistance (R); sensitivity(S)
Description: (§2) The drug sensitivities of a wild-type strain (MRSA2007-13 strain) and a mutant (SAm1-201) to β-lactam antibacterial drugs were measured in a drug sensitivity test (disk method). The test method will be explained. The wild-type strain (MRSA2007-13 strain) or the mutant (SAm1-201) was streaked on LB-Agar, and cultured at 37° C. overnight. The following day, single colonies were collected, added to 5 mL of Trypticase soy broth, and subjected to shaking culture at 37° C. overnight. After culturing, the bacterial solution was adjusted to McFarland turbidity No. 0.5, and evenly smeared on Mueller-Hinton II agar medium with a sterile cotton swab. After disposing sensitivity disks on the agar medium, culture was performed at 37° C. for 24 hours, and the diameter of an inhibitory zone formed around each disk was measured in millimeters.

[6] = test system: wild-type strain (MRSA2007-13 strain); test: drug sensitivity test (disk method), wild-type strain; settings: MRSA2007-13 WT, 37° C., 24 hours; for drug sensitivity rating (disk method), WT: Mueller-Hinton II agar; for diameter of inhibitory zone, WT: number in brackets; on drug sensitivity rating (disk method), WT: key: resistance (R); sensitivity(S)
Description: as §2

[7] = test system: wild-type strain (MRSA2007-13 strain); test: growth-inhibitory effect of phage and oxacillin added from the beginning, turbidimetry; settings: WT MRSA, ϕSA012 ≈1.0×10^7 pfu/mL (MOI≈0.1), oxacillin sodium 16 μg/mL, 37° C.
Description: The test method is shown in the following. This test was performed by means of turbidimetry. A bacterial solution (wild-type strain (MRSA2007-13 strain)) precultured overnight was diluted with LB-Broth to reach OD600≈1.0, and further 10-fold diluted (˜ 1.0×10^8 cfu/mL).
The plate was set in a Sunrise Rainbow Thermo RC (Tecan Japan Co., Ltd.), and shaking culture was performed at 37° C. for 90 hours while absorbance values at a wavelength of 590 nm were measured every 15 minutes.

Molecule: Cc1nnc(SCC2=C(C(=O)O)N3C(=O)[C@@H](NC(=O)Cn4cnnn4)[C@H]3SC2)s1 [CEZ, cefazolin]
- MIC, SAm1-206 [1]: 1 µg/mL (≈ 2.2 µM)
- MIC, WT [2]: >128
- drug sensitivity rating (MIC method), WT ([2]; symbol in brackets): (R)
- drug sensitivity rating (MIC method), SAm1-201 ([3]; symbol in brackets): (S)
- MIC, SAm1-210 [4]: 0.25 µg/mL (≈ 0.55 µM)

Molecule: C[C@@H](O)[C@H]1C(=O)N2C(C(=O)O)=C([C@H]3CCCO3)S[C@H]12 [FRPM, faropenem]
- MIC, SAm1-206 [1]: 0.25 µg/mL (≈ 0.876 µM)
- MIC, WT [2]: >128
- drug sensitivity rating (disk method), SAm1-201 [5]: S
- diameter of inhibitory zone, SAm1-201 [5]: ≥ 50 millimeters
- MIC, SAm1-201 [3]: 0.125>
- drug sensitivity rating (disk method), WT [6]: R
- MIC, SAm1-210 [4]: 0.125 µg/mL (≈ 0.438 µM)

Molecule: C[C@@H](O)[C@H]1C(=O)N2C(C(=O)O)=C(SCCN=CN)C[C@H]12 [IPM, imipenem]
- MIC, SAm1-206 [1]: 1 µg/mL (≈ 3.34 µM)
- MIC, WT [2]: 64
- drug sensitivity rating (disk method), SAm1-201 [5]: S
- diameter of inhibitory zone, SAm1-201 [5]: 44 millimeters
- MIC, SAm1-201 [3]: 0.125>
- drug sensitivity rating (disk method), WT [6]: R
- diameter of inhibitory zone, WT [6]: 9 millimeters
- MIC, SAm1-210 [4]: 0.125 µg/mL (≈ 0.418 µM)

Molecule: penicillin [PCG]
- MIC, SAm1-206 [1]: 2 µg/mL
- MIC, WT [2]: >16
- MIC, SAm1-201 ([3]; unit assumed): 2 µg/mL
- MIC, SAm1-210 [4]: 4 µg/mL

Molecule: COCC1=C(C(=O)O)N2C(=O)[C@@H](NC(=O)/C(=N\OC)c3csc(N)n3)[C@H]2SC1 [CPDX, cefpodoxime]
- drug sensitivity rating (disk method), SAm1-201 [5]: S
- diameter of inhibitory zone, SAm1-201 [5]: 28 millimeters
- drug sensitivity rating (disk method), WT [6]: R

Molecule: C[C@@H](O)[C@H]1C(=O)N2C(C(=O)O)=C(S[C@@H]3CN[C@H](C(=O)N(C)C)C3)[C@H](C)[C@H]12 [MEPE, meropenem]
- MIC, SAm1-206 [1]: 4 µg/mL (≈ 10.4 µM)
- MIC, WT [2]: 32
- drug sensitivity rating (disk method), SAm1-201 [5]: S
- diameter of inhibitory zone, SAm1-201 [5]: 28 millimeters
- MIC, SAm1-201 [3]: 0.125>
- drug sensitivity rating (disk method), WT [6]: R
- diameter of inhibitory zone, WT [6]: 7 millimeters
- MIC, SAm1-210 [4]: 0.125 µg/mL (≈ 0.326 µM)

Molecule: Cc1onc(-c2ccccc2)c1C(=O)N[C@@H]1C(=O)N2[C@@H]1SC(C)(C)[C@@H]2C(=O)O [MPIPC, oxacillin]
- MIC, SAm1-206 [1]: 4 µg/mL (≈ 9.96 µM)
- drug sensitivity rating (disk method), SAm1-201 [5]: S
- diameter of inhibitory zone, SAm1-201 [5]: 35 millimeters
- MIC, SAm1-201 ([3]; unit assumed): 0.125 µg/mL (≈ 0.311 µM)
- bacterial growth inhibition (turbidity) over 90 hours [7]: failed in inhibiting bacterial growth
- drug sensitivity rating (disk method), WT [6]: R
- MIC, SAm1-210 [4]: 0.125 µg/mL (≈ 0.311 µM)

Molecule: CO/N=C(\C(=O)N[C@@H]1C(=O)N2C(C(=O)O)=C(/C=C\c3scnc3C)CS[C@H]12)c1csc(N)n1 [CDTR, cefditoren]
- MIC, SAm1-206 [1]: < 0.5 µg/mL
- MIC, WT [2]: >2
- MIC, SAm1-201 ([3]; unit assumed): < 0.5 µg/mL
- MIC, SAm1-210 [4]: < 0.5 µg/mL

Molecule: C[C@H]1c2cccc(O)c2C(=O)C2=C(O)[C@]3(O)C(=O)C(C(N)=O)=C(O)[C@@H](N(C)C)[C@@H]3[C@@H](O)[C@@H]21 [DOXY, doxycycline]
- MIC, SAm1-206 [1]: 8 µg/mL (≈ 18 µM)
- MIC, WT [2]: 8
- MIC, SAm1-201 ([3]; unit assumed): 4 µg/mL (≈ 9 µM)
- MIC, SAm1-210 [4]: 4 µg/mL (≈ 9 µM)

Molecule: CC1=C(C(=O)O)N2C(=O)[C@@H](NC(=O)[C@H](N)c3ccccc3)[C@H]2SC1 [CEX, cephalexin]
- drug sensitivity rating (disk method), SAm1-201 [5]: S
- diameter of inhibitory zone, SAm1-201 [5]: 29 millimeters
- drug sensitivity rating (disk method), WT [6]: R

Molecule: CC/C=C(\C(=O)N[C@@H]1C(=O)N2C(C(=O)O)=C(COC(N)=O)CS[C@H]12)c1csc(N)n1 [CFPN, cefcapene]
- MIC, SAm1-206 [1]: < 0.5 µg/mL
- MIC, WT [2]: >2
- MIC, SAm1-201 ([3]; unit assumed): < 0.5 µg/mL
- MIC, SAm1-210 [4]: < 0.5 µg/mL

Molecule: CC1(C)S[C@@H]2[C@H](NC(=O)[C@H](N)c3ccc(O)cc3)C(=O)N2[C@H]1C(=O)O [AMPC, amoxicillin]
- MIC, SAm1-206 [1]: 16 µg/mL (≈ 43.8 µM)
- MIC, WT [2]: 64
- drug sensitivity rating (disk method), SAm1-201 [5]: S
- diameter of inhibitory zone, SAm1-201 [5]: 34 millimeters
- MIC, SAm1-201 ([3]; unit assumed): 8 µg/mL (≈ 21.9 µM)
- drug sensitivity rating (disk method), WT [6]: R
- MIC, SAm1-210 [4]: 2 µg/mL (≈ 5.47 µM)

Molecule: CCN1CCN(c2cc3c(cc2F)c(=O)c(C(=O)O)cn3C2CC2)CC1 [ERFX, enrofloxacin]
- MIC, SAm1-206 [1]: 64 µg/mL (≈ 178 µM)
- MIC, WT [2]: 128
- MIC, SAm1-201 ([3]; unit assumed): 64 µg/mL (≈ 178 µM)
- MIC, SAm1-210 [4]: 32 µg/mL (≈ 89 µM)

Molecule: CN(C)[C@@H]1C(O)=C(C(N)=O)C(=O)[C@@]2(O)C(O)=C3C(=O)c4c(O)cccc4[C@@](C)(O)[C@H]3[C@H](O)[C@@H]12 [OTC, oxytetracycline]
- MIC, SAm1-206 [1]: 128 µg/mL (≈ 278 µM)
- MIC, WT [2]: 128
- MIC, SAm1-201 ([3]; unit assumed): 64 µg/mL (≈ 139 µM)
- MIC, SAm1-210 [4]: 128 µg/mL (≈ 278 µM)
